Data as given in ChEMBL document CHEMBL6114997, “New curcumin derivative induces ferroptosis in MCF-7 cells through activating SLC7A11/GPX4 axis” (Bioorg Med Chem, 2025).
Calls of active or inactive are those of the source. The rule behind the calls is not given here.

Legend:
[1] = test system: MCF7; test: Antiproliferative activity against human MCF7 cells assessed as inhibition of cell growth by MTT assay; type: functional, cell-based
[2] = test system: A549; test: Antiproliferative activity against human A549 cells assessed as inhibition of cell growth by MTT assay; type: functional, cell-based
[3] = Antioxidant activity assessed as DPPH radical scavenging activity incubated for 30 mins in dark by absorbance based analysis; type: functional
[4] = test system: HT-29; test: Antiproliferative activity against human HT-29 cells assessed as inhibition of cell growth by MTT assay; type: functional, cell-based
[5] = test system: HepG2; test: Antiproliferative activity against human HepG2 cells assessed as inhibition of cell growth by MTT assay; type: functional, cell-based
[6] = test system: HeLa; test: Antiproliferative activity against human HeLa cells assessed as inhibition of cell growth by MTT assay; type: functional, cell-based
[7] = Potency index, ratio of cisplatin IC50 to test compound IC50 for antiproliferative activity against human HT-29 cells assessed as inhibition of cell growth by MTT assay; type: functional
[8] = test system: MCF7; test: Induction of ferroptosis in human MCF7 cells assessed as increase in MDA level at 3.0 micromol/L measured after 24 hrs by absorbance based analysis (reference value: 0.42 micromol/L); type: functional; conditions: dose 3 µmol/L
[9] = Potency index, ratio of cisplatin IC50 to test compound IC50 for antiproliferative activity against human HepG2 cells assessed as inhibition of cell growth by MTT assay; type: functional
[10] = test system: MCF7; test: Induction of intracellular ROS level in human MCF7 cells incubated for 24 hrs by DCFH-DA staining based fluorescence microscopic analysis; type: functional, cell-based; conditions: dose 1.5-3 µM
[11] = test system: MCF7; test: Induction of ferroptosis in human MCF7 cells assessed as decrease in GPX4 activity at 1.5 to 3.0 micromol/L by absorbance based analysis (reference value: 5.90 mU/mg); type: functional; conditions: dose 1.5-3 µmol/L
[12] = test system: MCF7; test: Induction of ferroptosis in human MCF7 cells assessed as increase in MDA level at 1.5 micromol/L measured after 24 hrs by absorbance based analysis (reference value: 0.42 micromol/L); type: functional; conditions: dose 1.5 µmol/L
[13] = Potency index, ratio of cisplatin IC50 to test compound IC50 for antiproliferative activity against human MCF7 cells assessed as inhibition of cell growth by MTT assay; type: functional
[14] = test system: MCF7; test: Induction of ferroptosis in human MCF7 cells assessed as change in GPX4 expression incubated for 24 hrs by Western blot analysis; type: functional, cell-based; conditions: dose 1.5-3 µmol/L
[15] = test system: MCF7; test: Induction of intracellular ROS level in human MCF7 cells at 3.0 uM incubated for 24 hrs by DCFH-DA staining based fluorescence microscopic analysis (reference value: 4.66%); type: functional
[16] = Potency index, ratio of cisplatin IC50 to test compound IC50 for antiproliferative activity against human HeLa cells assessed as inhibition of cell growth by MTT assay; type: functional
[17] = test system: MCF7; test: Induction of ferroptosis in human MCF7 cells assessed as decrease in SLC7A11 to GAPDH ratio at 1.5 to 3.0 micromol/L incubated for 24 hrs by Western blot analysis; type: functional, cell-based; conditions: dose 1.5-3 µmol/L
[18] = Potency index, ratio of cisplatin IC50 to test compound IC50 for antiproliferative activity against human A549 cells assessed as inhibition of cell growth by MTT assay; type: functional
[19] = test system: MCF7; test: Induction of ferroptosis in human MCF7 cells assessed as decrease in GPX4 to beta-actin ratio at 1.5 to 3.0 micromol/L incubated for 24 hrs by Western blot analysis; type: functional, cell-based; conditions: dose 1.5-3 µmol/L
[20] = test system: MCF7; test: Induction of ferroptosis in human MCF7 cells assessed as increase in intracellular ferrous ion level by measuring increase in fluorescence at 1.5 to 3.0 micromol/L incubated for 24 hrs by ferroOrange probe based fluorescence microscopic analysis; type: functional, cell-based; conditions: dose 1.5-3 µmol/L
[21] = test system: MCF7; test: Induction of intracellular ROS level in human MCF7 cells at 1.5 uM incubated for 24 hrs by DCFH-DA staining based fluorescence microscopic analysis (reference value: 4.66%); type: functional

Row | Compound | IC50 [1] [µM] | IC50 [2] [µM] | Activity [3] | IC50 [4] [µM] | IC50 [5] [µM] | IC50 [6] [µM] | further results
1 | COc1cc(/C=C/C(=O)C(=Cc2cccs2)C(=O)/C=C/c2ccc(OCCCO[N+](=O)[O-])c(OC)c2)ccc1OCCCO[N+](=O)[O-] | 2.4 | 1.27 | Weak_effect; Compound Showed Weak Effect Compared With Vitamin C | 1.81 | 1.44 | 20.5 | 
2 | COc1cc(/C=C/C(=O)C(=Cc2ccco2)C(=O)/C=C/c2ccc(OCCO[N+](=O)[O-])c(OC)c2)ccc1OCCO[N+](=O)[O-] | 2.32 | 0.8 | Weak_effect; Compound Showed Weak Effect Compared With Vitamin C | 1.28 | 1.61 | 14.2 | 
3 | COc1cc(/C=C/c2cc(/C=C/c3ccc(OCCO[N+](=O)[O-])c(OC)c3)n(-c3ccc(C(F)(F)F)cc3)n2)ccc1OCCO[N+](=O)[O-] | > 50 | > 50 |  | > 50 | > 50 | > 50 | 
4 | COc1cc(/C=C/C(=O)C(=Cc2ccco2)C(=O)/C=C/c2ccc(OCCCCO[N+](=O)[O-])c(OC)c2)ccc1OCCCCO[N+](=O)[O-] | 11.3 | 2.91 | Weak_effect; Compound Showed Weak Effect Compared With Vitamin C | 4.6 | 2.12 | 16.2 | 
5 | COc1cc(/C=C/C(=O)C(=Cc2cccs2)C(=O)/C=C/c2ccc(OCCO[N+](=O)[O-])c(OC)c2)ccc1OCCO[N+](=O)[O-] | 1.39 | 1.03 |  | 1.45 | 1.21 | 6.78 | Ratio IC50 [7]: >=2; Activity [8]: 1.25 µmol/L; Ratio IC50 [9]: >=2; Activity [10]: Dose-dependent-effect; Activity [11]: 3.52 mU/mg; Activity [12]: 0.84 µmol/L; Ratio IC50 [13]: >=2; Activity [14]: Dose-dependent-effect; Activity [15]: 60.7%; Ratio IC50 [16]: >=2; Activity [17]: Active; Ratio IC50 [18]: >=2; Activity [19]: Active; Activity [20]: Active; Activity [21]: 12.5%
6 | COc1cc(/C=C/C(=O)C(=Cc2ccco2)C(=O)/C=C/c2ccc(OCCCO[N+](=O)[O-])c(OC)c2)ccc1OCCCO[N+](=O)[O-] | 3.66 | 2.06 | Weak_effect; Compound Showed Weak Effect Compared With Vitamin C | 2.5 | 1.74 | 7.6 | 
7 | COc1cc(/C=C/c2cc(/C=C/c3ccc(OCCCO[N+](=O)[O-])c(OC)c3)n(-c3ccc(F)cc3)n2)ccc1OCCCO[N+](=O)[O-] | > 50 | > 50 |  | > 50 | > 50 | > 50 | 
8 | COc1cc(/C=C/c2cc(/C=C/c3ccc(OCCO[N+](=O)[O-])c(OC)c3)n(-c3ccccc3)n2)ccc1OCCO[N+](=O)[O-] | > 50 | > 50 |  | > 50 | > 50 | > 50 | 
9 | COc1cc(/C=C/c2cc(/C=C/c3ccc(OCCCCO[N+](=O)[O-])c(OC)c3)n(-c3ccccc3F)n2)ccc1OCCCCO[N+](=O)[O-] | > 50 | > 50 |  | > 50 | > 50 | > 50 | 
10 | COc1cc(/C=C/c2cc(/C=C/c3ccc(OCCO[N+](=O)[O-])c(OC)c3)n(Cc3ccccc3)n2)ccc1OCCO[N+](=O)[O-] | > 50 | > 50 |  | > 50 | > 50 | > 50 | 
11 | COc1cc(/C=C/C(=O)C(=Cc2cccs2)C(=O)/C=C/c2ccc(OCCCCO[N+](=O)[O-])c(OC)c2)ccc1OCCCCO[N+](=O)[O-] | 18.4 | 7.24 | Weak_effect; Compound Showed Weak Effect Compared With Vitamin C | 10.2 | 2.22 | > 50 | 
12 | COc1cc(/C=C/c2cc(/C=C/c3ccc(OCCCO[N+](=O)[O-])c(OC)c3)n(-c3ccccc3)n2)ccc1OCCCO[N+](=O)[O-] | > 50 | > 50 |  | > 50 | > 50 | > 50 | 
13 | COc1cc(/C=C/c2cc(/C=C/c3ccc(OCCCCO[N+](=O)[O-])c(OC)c3)n(Cc3ccccc3)n2)ccc1OCCCCO[N+](=O)[O-] | > 50 | > 50 |  | > 50 | > 50 | > 50 | 
